From US20100041722A1, “ORGANIC COMPOUNDS” (priority 2006, published 2010)

Assays:
[1] = biological target: T1, CYP11B1 (steroid 11β-hydroxylase) (Homo sapiens, UniProt P15538); test: in vitro CYP11B1 inhibition: steroid release from NCI-H295R cells; format: cell-based; conditions: Table 1
T1 construct: Thus, the NCl-H295R cells have CYP11B1 (steroid 11 p-hydroxylase); host or cells: NCI-H295R human adrenocortical carcinoma cells
T1 sequence (P15538 25-503): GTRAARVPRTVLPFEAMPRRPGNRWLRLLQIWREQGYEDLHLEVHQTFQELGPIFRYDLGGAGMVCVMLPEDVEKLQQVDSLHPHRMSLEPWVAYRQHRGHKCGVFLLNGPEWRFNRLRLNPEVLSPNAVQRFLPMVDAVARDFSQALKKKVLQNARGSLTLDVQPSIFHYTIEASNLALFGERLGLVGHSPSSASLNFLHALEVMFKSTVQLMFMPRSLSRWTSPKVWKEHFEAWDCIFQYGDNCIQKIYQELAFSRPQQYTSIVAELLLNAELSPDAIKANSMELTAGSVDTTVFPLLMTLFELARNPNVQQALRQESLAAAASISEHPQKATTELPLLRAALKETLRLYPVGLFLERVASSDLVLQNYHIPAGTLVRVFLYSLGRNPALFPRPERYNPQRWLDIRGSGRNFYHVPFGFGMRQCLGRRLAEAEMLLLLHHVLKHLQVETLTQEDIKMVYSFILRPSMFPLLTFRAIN
Excerpt: The in vitro inhibitory activities for CYP11B1 can be determined by the following assay.
The cell line NCl-H295R was originally isolated from an adrenocortical carcinoma and has been characterized in the literature through the stimulable secretion of steroid hormones and the presence of the enymes essential for steroidogenesis. Thus, the NCl-H295R cells have CYP11B1 (steroid 11 p-hydroxylase). The cells show the physiological property of zonally undifferentiated human foetal adrenocortical cells which, however, have the capacity to produce the steroid hormones which are formed in the three, phenotypically distinguishable zones in the adult adrenal cortex. […]
The excretion of aldosterone, cortisol, corticosterone and estradiol/estrone into the culture medium can be detected and quantified by commercially available, specific monoclonal antibodies in radioimmunoassays in accordance with the manufacturer's instructions.
Inhibition of the release of certain steroids can be used as a measure of the respective enzyme inhibition by the added test compounds. The dose-dependent inhibition of enzymic activity by a compound is calculated by means of an inhibition plot which is characterized by an IC50.
The IC50 values for active test compounds are ascertained by a simple linear regression analysis in order to construct inhibition plots without data weighting. The inhibition plot is calculated by fting a 4-parameter logistic function to the raw data points using the least squares method. The equation of the 4-parameter logistic function is calculated as follows: Y=(d−a)/((1+(x/c)b))+a I where: a=minimum data level b=gradient I c=ICED d=maximum data level x=inhibitor concentration.

[2] = biological target: T2, aldosterone synthase (CYP11B2) (Homo sapiens, UniProt P19099); test: in vitro aldosterone synthase inhibition: aldosterone production in Ang II-stimulated NCI-H295R cells; format: cell-based; conditions: Table 1, read-out: AS IC50
T2 construct: host or cells: NCI-H295R human adrenocortical carcinoma cells
T2 sequence (P19099 25-503): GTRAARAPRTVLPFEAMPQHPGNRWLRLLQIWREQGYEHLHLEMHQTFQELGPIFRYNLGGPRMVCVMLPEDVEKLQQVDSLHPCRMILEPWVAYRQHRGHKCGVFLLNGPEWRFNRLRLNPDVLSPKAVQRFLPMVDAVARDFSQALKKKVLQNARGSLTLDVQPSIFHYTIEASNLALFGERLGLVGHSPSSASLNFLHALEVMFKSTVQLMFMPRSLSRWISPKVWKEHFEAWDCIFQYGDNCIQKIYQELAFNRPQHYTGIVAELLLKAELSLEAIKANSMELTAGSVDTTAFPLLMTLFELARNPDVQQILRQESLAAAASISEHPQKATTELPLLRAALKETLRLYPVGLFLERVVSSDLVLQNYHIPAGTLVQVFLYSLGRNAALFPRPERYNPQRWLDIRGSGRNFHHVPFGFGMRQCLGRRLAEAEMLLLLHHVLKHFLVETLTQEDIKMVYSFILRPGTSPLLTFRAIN
Excerpt: Human adrenocortical carcinoma NCl-H295R cell line is obtained from American Type Culture Collection (Manassas, Va.). Insulin/transferrin/selenium (ITS)-A supplement (100×), DMEM/F-12, antibiotic/antimycotic (100×), and fetal calf serum (FCS) are purchased from Gibco (Grand Island, N.Y.). Anti-mouse PVT scintillation proximity assay (SPA) beads and NBS 96-well plates are obtained from Amersham (Piscataway, N.J.) and Corning (Acton, Mass.), respectively. Solid black 96-well flat bottom plates are purchased from Costar (Corning, N.Y.). Aldosterone and angiotensin (Ang II) are purchased from Sigma (St. Louis, Mo.). D-[1,2,6,7-^3H(N)]aldosterone was acquired from PerkinElmer (Boston, Mass.). Nu-serum was a product of BD Biosciences (Franklin Lakes, N.J.). The NADPH regenerating system, dibenzylfluorescein (DBF), and human aromatase supersomes® are obtained from Gentest (Woburn, Mass.).
For in vitro measurement of aldosterone activity, human adrenocortical carcinoma NCl-H295R cells are seeded in NBS 96-well plates at a density of 25,000 cells/well in 100 μl of a growth medium containing DMEM/F12 supplemented with 10% FCS, 2.5% Nu-serum, 1 μg ITS/ml, and 1× antibiotic/antimycotic. The medium is changed after culturing for 3 days at 37° C. under an atmosphere of 5% CO2/95% air. On the following day, cells are rinsed with 100 μl of DMEM/F12 and incubated with 100 μl of treatment medium containing 1 μM Ang II and a compound at different concentrations in quadruplicate wells at 37° C. for 24 hr. At the end of incubation, 50 μl of medium is withdrawn from each well for measurement of aldosterone production by an RIA using mouse anti-aldosterone monoclonal antibodies.
Measurement of aldosterone activity can also be performed using a 96-well plate format. Each test sample is incubated with 0.02 μCi of D-[1,2,6,7-^3H(N)]aldosterone and 0.3 μg of anti-aldosterone antibody in phosphate-buffered saline (PBS) containing 0.1% Triton X-100, 0.1% bovine serum albumin; and 12% glycerol in a total volume of 200 μl at room temperature for 1 hr. Anti-mouse PVT SPA beads (50 μl) are then added to each well and incubated overnight at room temperature prior to counting in a Microbeta plate counter. The amount of aldosterone in each sample is calculated by comparing with a standard curve generated using known quantities of the hormone.
Full concentration-response curves of the test compound are performed at least 3 times. The IC50 values are derived using a non-linear least squares curve-fitting program from Microsoft XLfit.

With `COC(=O)c1cn(C2Cc3ccccc3C2)cn1` [LDG688, 1-Indan-2-yl-1H-imidazole-4-carboxylic acid methyl ester] the IC50 [1] was 107 nM and the IC50 [2] was 9 nM.

`COC(=O)c1cncn1C1CCc2ccccc2C1` (centres unmarked) [LDI154, 3-(1,2,3,4-Tetrahydro-naphthalen-2-yl)-3H-imidazole-4-carboxylic acid methyl ester] was tested, and the IC50 [1] was 42 nM and the IC50 [2] was 6 nM.

`Cc1noc(-c2cncn2C2Cc3ccccc3C2)n1` [LDK260, 5-(3-Indan-2-yl-3H-imidazol-4-yl)-3-methyl-[1,2,4]oxadiazole] was tested, and the IC50 [1] was 725 nM and the IC50 [2] was 95 nM.

For `ON=Cc1cncn1C1Cc2ccccc2C1` [LDK909, 3-Indan-2-yl-3H-imidazole-4-carbaldehyde oxime], the IC50 [2] was 378 nM.

`COC(=O)c1cncn1C1COc2ccccc2OC1` [LDS237, 3-(3,4-Dihydro-2H-benzo[b][1,4]dioxepin-3-yl)-3H-imidazole-4-carboxylic acid methyl ester] was tested, and the IC50 [2] was 214 nM.
